Experimental data taken from publication PMC2806265, “Divergence of allosteric effects of rapacuronium on binding and function of muscarinic receptors” (BMC Pharmacology, 2009).

How the values were obtained:
M5 muscarinic receptor [1] = biological target: T1, M5 muscarinic receptor (Homo sapiens, UniProt P08912); assay: [35S]GTPγS binding to membranes; assay type: biochemical; parameters: host or cells: CHO cells, stably transfected; membranes; conditions: for EMAX of ACh on [^35S]GTPγS binding: fold of basal
T1 sequence (P08912 1-532): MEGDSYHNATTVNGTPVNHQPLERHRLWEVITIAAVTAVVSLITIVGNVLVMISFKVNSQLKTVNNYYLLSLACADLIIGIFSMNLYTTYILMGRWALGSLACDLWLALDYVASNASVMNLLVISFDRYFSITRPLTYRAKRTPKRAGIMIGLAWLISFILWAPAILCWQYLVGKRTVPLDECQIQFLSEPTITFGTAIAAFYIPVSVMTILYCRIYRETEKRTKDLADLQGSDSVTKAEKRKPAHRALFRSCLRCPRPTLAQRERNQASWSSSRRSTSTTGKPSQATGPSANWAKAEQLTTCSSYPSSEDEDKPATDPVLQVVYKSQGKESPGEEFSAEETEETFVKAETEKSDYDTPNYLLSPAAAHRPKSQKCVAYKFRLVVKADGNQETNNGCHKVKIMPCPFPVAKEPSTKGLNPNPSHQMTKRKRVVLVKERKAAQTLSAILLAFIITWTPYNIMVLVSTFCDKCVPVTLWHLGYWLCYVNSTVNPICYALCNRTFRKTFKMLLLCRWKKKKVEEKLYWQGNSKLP
Procedure: (§4) For determination of [^35S]GTPγS binding to G-proteins in membranes a final concentration of 200 pM (M1, M3 and M5 receptors) or 500 pM (M2 and M4 receptors) of [^35S]GTPγS was used. Incubation medium was supplemented with 5 μM (M1, M3 and M5 receptors) or 50 μM (M2 and M4 receptors) GDP. […] Incubation with [^35S]GTPγS was carried out for 20 min and free ligand was removed by filtration as described above. Filtration and washing with ice-cold water lasted for 9 s (wash-aspirate button time).

M4 muscarinic receptor [2] = biological target: T2, M4 muscarinic receptor (Homo sapiens, UniProt P08173); assay: [3H]ACh saturation binding; parameters: host or cells: CHO cells, stably transfected; membranes
T2 sequence (P08173 1-479): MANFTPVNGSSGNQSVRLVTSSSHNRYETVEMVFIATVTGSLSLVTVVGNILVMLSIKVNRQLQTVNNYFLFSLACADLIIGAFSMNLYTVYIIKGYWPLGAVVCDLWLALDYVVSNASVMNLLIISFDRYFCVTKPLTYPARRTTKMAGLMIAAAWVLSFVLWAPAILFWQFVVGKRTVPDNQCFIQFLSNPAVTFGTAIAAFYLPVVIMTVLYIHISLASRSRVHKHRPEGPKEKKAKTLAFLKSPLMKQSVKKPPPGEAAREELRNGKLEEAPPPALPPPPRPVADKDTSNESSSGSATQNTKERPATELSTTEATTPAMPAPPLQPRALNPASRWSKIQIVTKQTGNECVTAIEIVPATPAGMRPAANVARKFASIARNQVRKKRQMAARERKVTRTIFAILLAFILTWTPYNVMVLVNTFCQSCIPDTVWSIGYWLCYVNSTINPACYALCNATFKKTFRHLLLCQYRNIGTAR
Text: (§1) BMAX, maximum binding capacity; KD, equilibrium dissociation constant.

M5 muscarinic receptor [3] = biological target: T1, M5 muscarinic receptor; assay: [3H]ACh saturation binding; parameters: host or cells: CHO cells, stably transfected; membranes
Text: as §1

M4 muscarinic receptor [4] = biological target: T2, M4 muscarinic receptor; assay: Effect of rapacuronium on low-affinity ACh binding ([3H]NMS + GTPγS + ACh); parameters: host or cells: CHO cells, stably transfected; membranes
Text: (§2) […]. Data are expressed as percent of specific binding in the absence of rapacuronium. […]. […] Data are means ± SE from 3 independent experiments performed in quadruplicates. Curves are fits of Eq. 3 (circles) and Eq. 4 (squares and triangles) to data prior to normalization.
(§3) […]. […] […].

M5 muscarinic receptor [5] = biological target: T1, M5 muscarinic receptor; assay: as above; parameters: host or cells: CHO cells, stably transfected; membranes
Text: as §2, §3

M1 muscarinic receptor = biological target: T3, M1 muscarinic receptor (Homo sapiens, UniProt P11229); assay: [35S]GTPγS binding to membranes; assay type: biochemical; conditions: for EMAX of ACh on [^35S]GTPγS binding: fold of basal
T3 construct: host or cells: CHO cells, stably transfected; membrane preparation
T3 sequence (P11229 1-460): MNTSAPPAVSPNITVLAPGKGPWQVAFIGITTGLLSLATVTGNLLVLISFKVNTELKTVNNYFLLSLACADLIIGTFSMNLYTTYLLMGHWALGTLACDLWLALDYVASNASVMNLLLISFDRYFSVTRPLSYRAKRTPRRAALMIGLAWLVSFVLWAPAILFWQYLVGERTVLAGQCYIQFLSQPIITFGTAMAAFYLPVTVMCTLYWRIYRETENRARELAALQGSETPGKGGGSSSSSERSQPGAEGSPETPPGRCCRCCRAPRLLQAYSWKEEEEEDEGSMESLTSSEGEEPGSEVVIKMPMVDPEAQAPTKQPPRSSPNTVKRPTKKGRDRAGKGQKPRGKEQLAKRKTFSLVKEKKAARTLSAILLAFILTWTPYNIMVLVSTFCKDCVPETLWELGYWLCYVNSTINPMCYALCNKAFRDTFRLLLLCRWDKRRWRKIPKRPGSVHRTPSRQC
Procedure: as §4

M2 muscarinic receptor = biological target: T4, M2 muscarinic receptor (Homo sapiens, UniProt P08172); assay: Effect of rapacuronium on 1 nM [3H]NMS binding; parameters: host or cells: CHO cells, stably transfected; membrane preparation
T4 sequence (P08172 1-466): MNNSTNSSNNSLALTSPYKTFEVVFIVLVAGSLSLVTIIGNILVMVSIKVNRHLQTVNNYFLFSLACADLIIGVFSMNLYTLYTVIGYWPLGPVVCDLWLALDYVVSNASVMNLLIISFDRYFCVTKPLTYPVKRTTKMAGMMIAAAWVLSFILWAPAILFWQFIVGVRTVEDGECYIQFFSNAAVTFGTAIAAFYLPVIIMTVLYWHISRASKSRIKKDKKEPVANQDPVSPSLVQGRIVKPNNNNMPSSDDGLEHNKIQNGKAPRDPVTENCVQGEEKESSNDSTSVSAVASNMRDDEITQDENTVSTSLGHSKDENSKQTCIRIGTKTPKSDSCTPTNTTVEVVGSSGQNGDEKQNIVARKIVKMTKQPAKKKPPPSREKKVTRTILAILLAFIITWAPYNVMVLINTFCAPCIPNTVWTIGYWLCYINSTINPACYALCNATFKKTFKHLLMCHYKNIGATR
Text: Cooperativity factor greater than 1 denotes negative cooperativity and less than 1 positive cooperativity. Due to its log-normal error distribution factors of cooperativity are expressed as negative logarithms (pα) through the manuscript so negative values denotes negative cooperativity and positive value denotes positive cooperativity.

C=CC[N+]1([C@H]2C[C@H]3[C@@H]4CC[C@H]5C[C@H](OC(C)=O)[C@@H](N6CCCCC6)C[C@]5(C)[C@H]4CC[C@]3(C)[C@H]2OC(=O)CC)CCCCC1 [rapacuronium]
EC50 (M5 muscarinic receptor [1]): 61.7 µM | decrease in ACh EC50 (M5 muscarinic receptor [1]; M5, 0.1 μM rapacuronium): 1.5 fold | decrease in ACh EC50 (M5 muscarinic receptor [1]; M5, 1 μM rapacuronium): 4 fold | EMAX of ACh on [^35S]GTPγS binding (M5 muscarinic receptor [1]; M5, + 0.1 μM rapacuronium): 2.10 ± 0.09 | EMAX of ACh on [^35S]GTPγS binding (M5 muscarinic receptor [1]; M5, + 1 μM rapacuronium): 2.04 ± 0.09 | EMAX of ACh on [^35S]GTPγS binding (M5 muscarinic receptor [1]; M5, + 10 μM rapacuronium): 2.22 ± 0.09 | EMAX of rapacuronium on [^35S]GTPγS binding (M5 muscarinic receptor [1]; M5, rapacuronium alone, normalized to absence of rapacuronium): 0.75 ± 0.07 | BMAX of [^3H]ACh (M4 muscarinic receptor [2]; + 10 μM rapacuronium): 0.54 ± 0.05 fmol/μg of protein | BMAX of [^3H]ACh (M4 muscarinic receptor [2]; + 100 μM rapacuronium): 0.47 ± 0.04 fmol/μg of protein | BMAX of [^3H]ACh (M5 muscarinic receptor [3]; + 10 μM rapacuronium): 0.33 ± 0.03 fmol/μg of protein | BMAX of [^3H]ACh (M5 muscarinic receptor [3]; + 100 μM rapacuronium): 0.34 ± 0.06 fmol/μg of protein | Kd (M4 muscarinic receptor [4]): 3.24 µM | decrease in ACh low-affinity binding (cooperativity) (M4 muscarinic receptor [4]; M4): 36 times | pβ, cooperativity with ACh low affinity binding (M4 muscarinic receptor [4]; M4, negative value = negative cooperativity): -1.56 ± 0.07 | Kd (M5 muscarinic receptor [5]): 11.2 µM | pβ, cooperativity with ACh low affinity binding (M5 muscarinic receptor [5]; M5, negative value = negative cooperativity): -1.28 ± 0.07 | decrease in ACh EC50 (M1 muscarinic receptor; 0.1 μM rapacuronium): 1.5 fold | decrease in ACh EC50 (M1 muscarinic receptor; 1 μM rapacuronium): 4 fold | EMAX of ACh on [^35S]GTPγS binding (M1 muscarinic receptor; + 0.1 μM rapacuronium): 2.35 ± 0.12 | EMAX of ACh on [^35S]GTPγS binding (M1 muscarinic receptor; + 1 μM rapacuronium): 2.28 ± 0.12 | EMAX of ACh on [^35S]GTPγS binding (M1 muscarinic receptor; + 10 μM rapacuronium): 2.27 ± 0.11 | EMAX of rapacuronium on [^35S]GTPγS binding (M1 muscarinic receptor; rapacuronium alone, normalized to absence of rapacuronium): 0.76 ± 0.08 | EC50 (M1 muscarinic receptor; rapacuronium alone, read-out: pEC50 of rapacuronium on [^35S]GTPγS binding (converted)): 50.1 µM | decrease in affinity of [^3H]NMS (cooperativity) (M2 muscarinic receptor; M2): 6.8 fold | pα, cooperativity with [^3H]NMS (M2 muscarinic receptor; M2, negative value = negative cooperativity): -0.83 ± 0.07 | Kd (M2 muscarinic receptor; read-out: pKA of rapacuronium (converted)): 2.57 µM
